Data from patent publication US9795585B2, “Methods of using L-butylphthalide for the prevention and treatment of cerebral ischemia disease” (priority 2004, dated 2017).
Where “and” joins values, the source holds several entries; their conditions need not be identical. Equal values may be shown once.

Columns and labels:
[1] = test system: normal rats; format: in vivo, Male wistar rats; conditions: 15 and 30 mg/kg oral; for cerebral blood flow rate in normal rats: 30 minutes after administration
Description: (§1) Experimental Animals: Male wistar rats.
(§2) Experimental Equipments: SXP operating microscope, 62TZ-V model high frequency electrotome, solid positioner, Diamond Electro-Tech chemical microsensor 1231, two channel physiological parameter recorder.
(§3) Experimental Methods: • (1) dl-, d-, and l-NBP (15 and 30 mg/kg) and the vehicle were orally administered to the normal rats, and the changes of cerebral blood flow at different time after the administration were measured. • (2) ligation of cerebral artery was conducted on rats according to the method of Tamura. Oral administration was performed at 10 min after the operation. The rats were divided into 9 groups, which were normal group, pseudo-operation group, vehicle control group, and groups of dl-, d-, and l-NBP (15 and 30 mg/kg).

[2] = test system: cerebral apoplexy in spontaneous hypertension rats; test: Cerebral apoplexy in salt-loaded spontaneous hypertensive rats; format: in vivo
Description: Experimental Animals: spontaneous hypertensive rats of 6 weeks old. Experimental Methods: Spontaneous hypertensive rats of 6 weeks old were divided into 8 groups with 10 rats per group. 0.8 to 0.9 g per day of common salt was administered starting from week 6. […] The scores of neurological deficit and the time of death were recorded.

[3] = test system: cerebral edema induced by cerebral artery ligation in rats; test: Cerebral edema induced by ligation of right middle cerebral artery; format: in vivo, male Wistar rats
Description: Experimental Animals: the same as Example 1. Experimental Equipments: Oxygen analyzer. Experimental Methods: Cerebral edema was induced by the ligation of right middle cerebral artery of rats. After 15 minutes, dl-, d-, and l-NBP (40 and 80 mg/kg) were orally administered. The rats were sacrificed after 24 hours. The forebrain was removed, and the cerebral hemispheres on the left and right side were weighed. Dry weight was obtained by baking for 24 hours under 100° C. The weight of water in the brain tissue was thus calculated by subtracting of dry weight from wet weight. Then, the tissues was nitrified for 4 hours, and pH was adjusted by using HCl. Next, the ion selective electrode was connected onto the oxygen analyzer, and the concentrations of Na^+ and K^+ in the brain tissue were measured.

[4] = test system: cerebral ischemia-reperfusion rats; test: Behavioral disorder and cerebral infarct area in cerebral ischemia-reperfusion rats (MCAO by nylon suture, 1.5 h); format: in vivo, male Wistar rats; conditions: for neurological deficit scores (effect in words) / potency on neurological deficit scores compared among l, dl and d-NBP: 24 hours after intravenous injection; for reduction of cerebral infarct area / ED50 (cerebral infarct area): i.v., vs model control group; for cerebral infarct area (effect in words): intravenous administration, effect increases with dose
Source text: Experimental Animal: The same as Example 1
Experimental Equipments: The same as Example 7
Experimental Methods: The rats were anesthetized, and fixed in lateral decubitus position. Under the operating microscope, a midline neck skin incision was made to expose the left common cartotid artery. The surrounding nerves and fascia from the bifurcation of common carotid artery to the vascular of basis cranii were removed.
The internal carotid artery was then separated and carefully separated free from vagus nerve. Pterygopalatine artery was ligated at the root of the internal carotid artery. A 6# needle for injection containing 3# nylon suture (diameter of 0.285 mm) was punctured into the free end of the external carotid artery, advancing the nylon suture into the blood vascular. The needle was carefully withdrawn, and the nylon suture was guided into the internal carotid artery from the distal end of the external carotid artery up till to Willis ring, so as to effectively block the middle cerebral artery.
Depending on the body weight, the distance from the inserted nylon suture to the bifurcation of common carotid artery was 18 to 20 mm. The free end of the external carotid artery and the nylon suture therein were ligated together, in order to prevent bleeding. The muscle and the skin were then sutured layer by layer, and penicillin was dropped to prevent infection. To effectively block the middle cerebral artery, the tip of the nylon suture was made round by burning with the flame, and coated with 0.1% of poly-L-lysine. The nylon suture was baked in a 60° C. oven for 1 hour.
Due to the ability of poly-L-lysine to binding the cell and the protein to the plastic surface, and thus allow the negative charged nylon suture changing into a positive charged one and attract the anion ionic part of the endothelial cell, the nylon suture was closely bond to the endothelial surface, so as to prevent the leakage of the blood from the surrounding of the suture. Only the internal carotoid artery was separated from the animals of pseudo-operation group.
At 1.5 hours after the initiation of MCAO, the nylon suture within the lumen of the internal carotoid artery was carefully withdrawn, and the internal carotoid artery was allowed to reperfusion. The rats were then placed back into the cage.

[5] = test system: permanent cerebral ischemic rats; test: Behavioral disorder and cerebral infarct area in permanent cerebral ischemic rats (FeCl3 on middle cerebral artery); format: in vivo, Wistar rats; conditions: for reduction of cerebral infarct area / neurological deficit scores (effect in words) / ED40 (cerebral infarct area): vs model control group; for decrease of neurological deficit scores / ED30 (neurological deficit scores): i.v., 24 hours after administration; for neurological deficit scores (effect in words): intravenous injection
Description: Experimental Animal: The same as Example 1. Experimental Equipments: COOLPIX955 digital camera, 722 grating spectroscope, XHF-1 high-speed disperser, YKH-II liquid high-speed mixer, WZ-50C2 micro infusion pump. Experimental Methods: Wistar rats were anesthetized by intraperitoneally injecting 12% chloral hydrate in 350 mg/kg, and fixed in lateral decubitus position. The skin at the midpoint on the line from exterior auditory canal to canthus was cut. The muscle was separated layer by layer to expose zygomatic arch and the squamous part of temporal bone. The zygomatic arch was scissored and then placed under an operating microscope. A window of 2 mm diameter was drilled by using a dentistry drill at a position of 2 mm under the anterior joint between zygomatic arch and the squamous part of temporal bone, so as to expose the middle cerebral artery. A little piece of filter paper was applied onto the middle artery, and 10 μl of 50% FeCl3 aqueous solution was dripped onto the filter paper. The filter paper was removed after 30 min, and washed with physiological brine. Two to three drops of penicillin (1.6×10^5 U/mL) were added so as to prevent infection of the cut. Then the cut was sutured layer by layer.

[6] = test system: ischemic region (corpus striatum) of rats with blocked cerebral artery; test: Focal cerebral blood flow after ligation of cerebral artery (method of Tamura); format: in vivo, Male wistar rats
Description: as §1, §2, §3

[7] = test system: cerebral injury-induced cerebral ischemia in rats; test: Neural symptoms induced by cerebral injury in rats; format: in vivo, male Wistar rats; conditions: 50 mg/kg oral 5 minutes after cerebral injury; scored after 24 hours; vs vehicle control
Description: Experimental Animals: male Wistar rats
Experimental Methods: Cerebral injury in rats was caused by allowing a cone-shaped metal object weighing 220 g to freely fall from a position of 30 cm height and to strike the skull cap behind the left coronal suture. dl-, d-, and l-NBP (50 mg/kg) and the vehicle (control group) were orally administered after 5 minutes, and the behavioral changes were scored after 24 hours.

[8] = 40 and 80 mg/kg oral 15 minutes after ligation, sacrificed after 24 hours
[9] = 25 and 50 mg/kg/d oral until 3 weeks after apoplexy, dose-dependent

| SMILES | cerebral blood flow rate in normal rats [1] | content of K+ in the brain [3, 8] | content of Na+ in the brain [3, 8] | content of water in the brain [3, 8] | neurological deficit scores (effect in words) [4] | potency on neurological deficit scores compared among l, dl and d-NBP [4] | reduction of cerebral infarct area ([4]; first of three doses) | ED50 (cerebral infarct area) [4] | cerebral infarct area (effect in words) [4] | reduction of cerebral infarct area ([4]; second of three doses) | reduction of cerebral infarct area ([4]; third of three doses) | reduction of cerebral infarct area ([5]; first of three doses) [%] | decrease of neurological deficit scores ([5]; high dose) [%] | ED30 (neurological deficit scores) [5] [mg/kg] | neurological deficit scores (effect in words) [5] | decrease of neurological deficit scores ([5]; low dose) [%] | decrease of neurological deficit scores ([5]; moderate dose) [%] | reduction of cerebral infarct area ([5]; second of three doses) [%] | reduction of cerebral infarct area ([5]; third of three doses) [%] | ED40 (cerebral infarct area) [5] [mg/kg] | also measured |
| --- | --- | --- | --- | --- | --- | --- | --- | --- | --- | --- | --- | --- | --- | --- | --- | --- | --- | --- | --- | --- | --- |
| CCCCC1OC(=O)c2ccccc21 (racemic) [dl-NBP, butylphthalide] | no such effects | no significant effect | no significant effect | no significant effect | improvement | no significant difference | 37.9% and 34.8% | 5.5 mg/kg and 5.7 mg/kg | significantly reduce | 48.5% and 46.5% | 59.2% and 60.9% | 29.2 | 37.5 | 7.2 | improvement | 15.6 | 21.9 | 35.2 | 44.4 | 7.1 | preventive and therapeutic effect on cerebral apoplexy (overall) ([2]; 25 and 50 mg/kg/d oral): merely had such effect at relatively high doses; content of Na+ in the brain ([3]; 80 mg/kg oral, decrease seen): no statistical significance; content of water in the brain ([3]; 80 mg/kg oral, decrease seen): no statistical significance; content of K+ in the brain ([3]; 80 mg/kg oral, increase seen): no statistical significance; cerebral infarct area (effect in words) ([5]; 2.5 mg/kg, tendency of reducing): not significant; focal blood flow in the corpus striatum on the side of the blocked cerebral artery ([6]; 30 mg/kg oral 10 min after operation, similar increase seen): no statistical significance; neural symptoms (behavioral changes scored) [7]: no significant effect |
| CCCC[C@@H]1OC(=O)c2ccccc21 [l-NBP, L-butylphthalide] | significantly increased | increase | significantly decrease | significantly decrease | improvement | no significant difference | 40.8% | 3.8 mg/kg | significantly reduce | 57.0% | 68.5% | 38.4 | 35.9 | 6.2 | improvement | 17.2 | 29.7 | 41.9 | 50.7 | 3.3 | time after administration till which cerebral blood flow rate was maintained at a relative high level ([1]; normal rats): 50 min; time of the occurrence of cerebral apoplexy ([2]; 25 and 50 mg/kg/d oral from week 8, vs vehicle control): significantly delay; neurological deficit after cerebral apoplexy [2, 9]: reduce; viability after the occurrence of cerebral apoplexy [2, 9]: significantly increase; effect on cerebral infarct area relative to d-NBP ([4]; as calculated by ED50): about 1.5 times; cerebral infarct area (effect in words) ([5]; 5 and 10 mg/kg, effect increased with dose): significantly reduce; effect on cerebral infarct area relative to d-NBP ([5]; as calculated by converting into ED50): about 3.1 times; cerebral infarct area (effect in words) ([5]; dose not given): significantly reduce; focal blood flow in the corpus striatum on the side of the blocked cerebral artery ([6]; 15 and 30 mg/kg oral 10 min after operation, vs vehicle control, dose-dependent): significantly increase; neural symptoms (behavioral changes scored) [7]: significantly reduced |
